Measured values as given in PubChem BioAssay (NCI).
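All cell lines were grown in 96-well plates and treated with compound for 48 hours. At the TGI there is no net growth.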

Assays:
Assay in all cases: NCI anticancer screen, dose series, 48 h
[1] = tested on: A549 NSCLC
[2] = tested on: CAKI-1 renal
[3] = tested on: CCRF-CEM leukemia
[4] = tested on: COLO 205 colon
[5] = tested on: HOP-62 NSCLC
[6] = tested on: K-562 leukemia
[7] = tested on: KM12 colon
[8] = tested on: MCF7 breast
[9] = tested on: MOLT-4 leukemia
[10] = tested on: NCI-H460 lung
[11] = tested on: OVCAR-3 ovarian
[12] = tested on: PC-3 prostate
[13] = tested on: RXF 393 renal
[14] = tested on: SF-295 CNS
[15] = tested on: SF-539 CNS
[16] = tested on: SK-MEL-28 melanoma
[17] = tested on: SK-MEL-5 melanoma
[18] = tested on: SNB-19 CNS
[19] = tested on: SNB-75 CNS
[20] = tested on: UACC-62 melanoma

COc1ccc(C[C@@H](C(=O)O[C@H](C)[C@H](NC(=O)[C@@H](CC(C)C)N(C)C(=O)C2CCCN2C(=O)[C@H](C)O)C(=O)N2CCCCNC(=O)[C@@H](C)C(=O)[C@H](C(C)C)OC(=O)C[C@H](O)[C@H]2CC(C)C)N(C)C(C)=O)cc1 (stereo not given in full) was tested, and the TGI [1] was > 50 µM, the TGI [2] was 41.6 µM and the TGI [3] was 26.1 µM. For the same molecule, the TGI [4] was 14.8 µM, the TGI [5] was > 50 µM and the TGI [6] was 39.7 µM. The TGI [7] was 31.6 µM, the TGI [8] was > 50 µM and the TGI [9] was 35.2 µM. For the same molecule, the TGI [10] was 45.2 µM, the TGI [11] was > 50 µM and the TGI [12] was > 50 µM. The TGI [13] was 20.6 µM, the TGI [14] was > 50 µM and the TGI [15] was 17.1 µM. The TGI [16] was 22.6 µM, the TGI [17] was 34.1 µM and the TGI [18] was > 50 µM. For the same molecule, the TGI [19] was > 50 µM and the TGI [20] was 22 µM.

In the case of CC(C)[C@@H]1CC[C@@H](C)C[C@H]1OC(=O)/C=C1\C(C(=O)O[C@@H]2C[C@H](C)CC[C@H]2C(C)C)[C@H]2C=C[C@@H]1O2 (stereo not given in full), the TGI [1] is reported as > 100 µM, the TGI [2] is reported as > 100 µM and the TGI [3] is reported as > 100 µM. For the same molecule, the TGI [4] was > 100 µM, the TGI [5] was > 100 µM and the TGI [6] was > 100 µM. For the same molecule, the TGI [7] was > 100 µM, the TGI [8] was 71.6 µM and the TGI [9] was > 100 µM. The TGI [10] was > 100 µM, the TGI [11] was > 100 µM and the TGI [12] was > 100 µM. The TGI [13] was > 100 µM, the TGI [14] was > 100 µM and the TGI [15] was > 100 µM. The TGI [16] was > 100 µM, the TGI [17] was > 100 µM and the TGI [18] was > 100 µM. For the same molecule, the TGI [19] was > 100 µM and the TGI [20] was > 100 µM.

COc1ccc(-c2c(-c3ccccc3)c(C)nc3[nH]c(=S)[nH]c(=S)c23)cc1OC was tested, and the TGI [1] was > 100 µM, the TGI [2] was > 100 µM and the TGI [3] was 72.5 µM. The TGI [4] was 72.1 µM, the TGI [5] was 89.6 µM and the TGI [6] was > 100 µM. The TGI [7] was 42.7 µM, the TGI [8] was > 100 µM and the TGI [9] was 63.6 µM. For the same molecule, the TGI [10] was 98.3 µM, the TGI [11] was 40.2 µM and the TGI [12] was > 100 µM. The TGI [13] was > 100 µM, the TGI [14] was > 100 µM and the TGI [15] was 50.8 µM. The TGI [16] was 52.8 µM, the TGI [17] was > 100 µM and the TGI [18] was > 100 µM. The TGI [19] was > 100 µM and the TGI [20] was 40.2 µM.

In the case of COc1ccc(CCc2ccc3c(c2)OCO3)cc1, the TGI [1] is reported as > 100 µM, the TGI [2] is reported as > 100 µM and the TGI [3] is reported as > 100 µM. For the same molecule, the TGI [4] was > 100 µM, the TGI [5] was > 100 µM and the TGI [6] was > 100 µM. The TGI [7] was > 100 µM, the TGI [8] was > 100 µM and the TGI [9] was > 100 µM. For the same molecule, the TGI [10] was > 100 µM, the TGI [11] was > 100 µM and the TGI [12] was > 100 µM. The TGI [13] was 86 µM, the TGI [14] was > 100 µM and the TGI [15] was > 100 µM. For the same molecule, the TGI [16] was > 100 µM, the TGI [17] was > 100 µM and the TGI [18] was > 100 µM. For the same molecule, the TGI [19] was > 100 µM and the TGI [20] was > 100 µM.

For O=C1C(c2c(O)[nH]c3ccc(Cl)cc23)=Nc2ccccc21, the TGI [1] was 20.7 µM, the TGI [2] was > 71.6 µM and the TGI [3] was > 100 µM. For the same molecule, the TGI [4] was > 100 µM, the TGI [5] was 38 µM and the TGI [6] was > 100 µM. The TGI [7] was > 100 µM, the TGI [8] was > 22 µM and the TGI [9] was > 100 µM. The TGI [10] was > 100 µM, the TGI [11] was 17.9 µM and the TGI [12] was > 28 µM. For the same molecule, the TGI [13] was 7.11 µM, the TGI [14] was > 78.8 µM and the TGI [15] was 17.9 µM. The TGI [16] was > 100 µM, the TGI [17] was 17.7 µM and the TGI [18] was > 81.4 µM. For the same molecule, the TGI [19] was 15.5 µM and the TGI [20] was > 91.3 µM.

With C[C@@H](NC(=O)Cn1c(Cl)nc2ccccc21)c1ccccc1 the TGI [1] was > 100 µM, the TGI [2] was > 100 µM and the TGI [3] was > 100 µM. The TGI [4] was > 100 µM, the TGI [5] was > 100 µM and the TGI [6] was > 100 µM. The TGI [7] was > 100 µM, the TGI [8] was > 100 µM and the TGI [9] was > 100 µM. The TGI [10] was > 100 µM, the TGI [11] was > 100 µM and the TGI [12] was > 100 µM. The TGI [13] was > 100 µM, the TGI [14] was > 100 µM and the TGI [15] was > 100 µM. The TGI [16] was > 100 µM, the TGI [17] was > 100 µM and the TGI [18] was > 100 µM. The TGI [19] was > 100 µM and the TGI [20] was > 100 µM.

With O=C1N/C(=N\N=C\c2ccccc2)C2(CCCCC2)O1 the TGI [1] was > 100 µM, the TGI [2] was > 100 µM and the TGI [3] was 61.1 µM. For the same molecule, the TGI [4] was > 100 µM, the TGI [5] was > 100 µM and the TGI [6] was > 100 µM. The TGI [7] was > 100 µM, the TGI [8] was > 100 µM and the TGI [9] was > 100 µM. The TGI [10] was > 100 µM, the TGI [11] was > 100 µM and the TGI [12] was > 100 µM. For the same molecule, the TGI [13] was > 100 µM, the TGI [14] was > 100 µM and the TGI [15] was > 100 µM. The TGI [16] was > 100 µM, the TGI [17] was > 100 µM and the TGI [18] was > 100 µM. For the same molecule, the TGI [19] was 88.5 µM and the TGI [20] was > 100 µM.

Cc1cc(N(CCC#N)CCC#N)ccc1/C=C(\NC(=O)/C=C/c1ccccc1)C(=O)Nc1ccc(Cl)cc1 was tested, and the TGI [1] was > 100 µM, the TGI [2] was 98 µM and the TGI [3] was > 100 µM. The TGI [4] was 12.7 µM, the TGI [5] was > 100 µM and the TGI [6] was > 100 µM. For the same molecule, the TGI [7] was > 94 µM, the TGI [8] was > 100 µM and the TGI [9] was > 100 µM. For the same molecule, the TGI [10] was > 100 µM, the TGI [11] was > 100 µM and the TGI [12] was > 100 µM. The TGI [13] was > 100 µM, the TGI [14] was > 100 µM and the TGI [15] was > 100 µM. The TGI [16] was > 100 µM, the TGI [17] was 5.95 µM and the TGI [18] was > 100 µM. For the same molecule, the TGI [19] was > 100 µM and the TGI [20] was > 14.7 µM.

In the case of Cc1nc2c(O)c3c(c(O)c2nc1C)C1C=CC3CC1, the TGI [1] is reported as 63.5 µM, the TGI [2] is reported as 14.9 µM and the TGI [3] is reported as 3.53 µM. It also gave a TGI [4] of 38.4 µM, a TGI [5] of 36.4 µM and a TGI [6] of 4.31 µM. The TGI [7] was 31.5 µM, the TGI [8] was 25.4 µM and the TGI [9] was 2.9 µM. The TGI [10] was > 72.6 µM, the TGI [11] was 21.2 µM and the TGI [12] was 35.9 µM. The TGI [13] was 22.6 µM, the TGI [14] was 47.2 µM and the TGI [15] was 22 µM. The TGI [16] was 30.8 µM, the TGI [17] was 27.7 µM and the TGI [18] was > 100 µM. The TGI [19] was > 92.6 µM and the TGI [20] was 67.2 µM.
